Results published in PubChem BioAssay AID2060606 (Molecular Pharmacology Branch, DTP, NCI, 2025).

Tested on: 922993-354-T-J3-PDC complex spheroids, viability, % test/control
Assay: Anticancer human tumor 922993-354-T-J3-PDC patient-derived endometrial carcinoma cell line growth inhibition [CLK]
Conditions: for IC50: curve of first compound; for viability, T/C: stronger effect = lower value
Method in brief: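 Multi-cell-type spheroids combined patient-derived tumor cells with HUVEC endothelial cells and human mesenchymal stem cells. Paired agents were dosed in half-log steps down from about clinical Cmax, or from 10 microM where Cmax was unknown.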

[1] = second compound 0.0316 µM, first compound 0.00316 µM
[2] = second compound 0.0316 µM, first compound 0.01 µM
[3] = second compound 0.0316 µM, first compound 0.0316 µM
[4] = second compound 0.0316 µM, first compound 0.1 µM
[5] = second compound 0.1 µM, first compound 0.00316 µM
[6] = second compound 0.1 µM, first compound 0.01 µM
[7] = second compound 0.1 µM, first compound 0.0316 µM
[8] = second compound 0.1 µM, first compound 0.1 µM
[9] = second compound 0.316 µM, first compound 0.00316 µM
[10] = second compound 0.316 µM, first compound 0.01 µM
[11] = second compound 0.316 µM, first compound 0.0316 µM
[12] = second compound 0.316 µM, first compound 0.1 µM
[13] = second compound 1 µM, first compound 0.00316 µM
[14] = second compound 1 µM, first compound 0.01 µM
[15] = second compound 1 µM, first compound 0.0316 µM
[16] = second compound 1 µM, first compound 0.1 µM
[17] = second compound 3.16 µM, first compound 0.00316 µM
[18] = second compound 3.16 µM, first compound 0.01 µM
[19] = second compound 3.16 µM, first compound 0.0316 µM
[20] = second compound 3.16 µM, first compound 0.1 µM
[21] = second compound 10 µM, first compound 0.00316 µM
[22] = second compound 10 µM, first compound 0.01 µM
[23] = second compound 10 µM, first compound 0.0316 µM
[24] = second compound 10 µM, first compound 0.1 µM
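Also: spheroids exposed to the agents for 7 days before readout.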

`CCc1c2c(nc3ccc(O)cc13)-c1cc3c(c(=O)n1C2)COC(=O)[C@]3(O)CC` + CNC(=O)c1ccc(Nc2nc(OC3CCCC3)c3c(-c4ccc5nc(C)oc5c4)c[nH]c3n2)c(OC)c1 gave an IC50 (second compound 0.0316 µM) of 19.5 nM, an IC50 (second compound 0.1 µM) of 22.9 nM and an IC50 (second compound 0.316 µM) of 16.6 nM. It also gave an IC50 (second compound 1 µM) of less than 3.16 nM, an IC50 (second compound 3.16 µM) of less than 3.16 nM and an IC50 (second compound 10 µM) of less than 3.16 nM. For the same molecule, the viability, T/C [1] was 101%, the viability, T/C [2] was 85.3% and the viability, T/C [3] was 24.8%. For the same molecule, the viability, T/C [4] was 15.1%, the viability, T/C (second compound 0.0316 µM, first compound 0.316 µM) was 22.3% and the viability, T/C (second compound 0.0316 µM, first compound 1 µM) was 25.9%. The viability, T/C [5] was 99.2%, the viability, T/C [6] was 79.2% and the viability, T/C [7] was 40.6%. The viability, T/C [8] was 15.1%, the viability, T/C (second compound 0.1 µM, first compound 0.316 µM) was 20.7% and the viability, T/C (second compound 0.1 µM, first compound 1 µM) was 29.9%. For the same molecule, the viability, T/C [9] was 64.2%, the viability, T/C [10] was 63.4% and the viability, T/C [11] was 32.6%. The viability, T/C [12] was 16%, the viability, T/C (second compound 0.316 µM, first compound 0.316 µM) was 21.4% and the viability, T/C (second compound 0.316 µM, first compound 1 µM) was 31.4%. The viability, T/C [13] was 32.1%, the viability, T/C [14] was 39.8% and the viability, T/C [15] was 13.2%. It also gave a viability, T/C [16] of 13.6%, a viability, T/C (second compound 1 µM, first compound 0.316 µM) of 20.3% and a viability, T/C (second compound 1 µM, first compound 1 µM) of 18.5%. The viability, T/C [17] was 34.4%, the viability, T/C [18] was 28.1% and the viability, T/C [19] was 14.6%. It also gave a viability, T/C [20] of 13.8%, a viability, T/C (second compound 3.16 µM, first compound 0.316 µM) of 17.4% and a viability, T/C (second compound 3.16 µM, first compound 1 µM) of 17.7%. It also gave a viability, T/C [21] of 30%, a viability, T/C [22] of 21.8% and a viability, T/C [23] of 12.6%. For the same molecule, the viability, T/C [24] was 14.6%, the viability, T/C (second compound 10 µM, first compound 0.316 µM) was 16.5% and the viability, T/C (second compound 10 µM, first compound 1 µM) was 17.6%.

Molecule `Cn1ncnc1[C@H]1c2n[nH]c(=O)c3cc(F)cc(c23)N[C@@H]1c1ccc(F)cc1` + CNC(=O)c1ccc(Nc2nc(OC3CCCC3)c3c(-c4ccc5nc(C)oc5c4)c[nH]c3n2)c(OC)c1 has an IC50 (second compound 0.0316 µM) greater than 100 nM, an IC50 (second compound 0.1 µM) greater than 100 nM and an IC50 (second compound 0.316 µM) greater than 100 nM. It also gave an IC50 (second compound 1 µM) of less than 0.316 nM, an IC50 (second compound 3.16 µM) of less than 0.316 nM and an IC50 (second compound 10 µM) of less than 0.316 nM. It also gave a viability, T/C (second compound 0.0316 µM, first compound 0.000316 µM) of 92%, a viability, T/C (second compound 0.0316 µM, first compound 0.001 µM) of 99.2% and a viability, T/C [1] of 88.9%. It also gave a viability, T/C [2] of 104%, a viability, T/C [3] of 97.6% and a viability, T/C [4] of 84.6%. For the same molecule, the viability, T/C (second compound 0.1 µM, first compound 0.000316 µM) was 109%, the viability, T/C (second compound 0.1 µM, first compound 0.001 µM) was 114% and the viability, T/C [5] was 106%. It also gave a viability, T/C [6] of 104%, a viability, T/C [7] of 113% and a viability, T/C [8] of 94.4%. It also gave a viability, T/C (second compound 0.316 µM, first compound 0.000316 µM) of 77.3%, a viability, T/C (second compound 0.316 µM, first compound 0.001 µM) of 64.4% and a viability, T/C [9] of 56.6%. The viability, T/C [10] was 73.2%, the viability, T/C [11] was 76.1% and the viability, T/C [12] was 57.2%. The viability, T/C (second compound 1 µM, first compound 0.000316 µM) was 36.9%, the viability, T/C (second compound 1 µM, first compound 0.001 µM) was 34% and the viability, T/C [13] was 32.4%. The viability, T/C [14] was 33.9%, the viability, T/C [15] was 32.4% and the viability, T/C [16] was 27.1%. It also gave a viability, T/C (second compound 3.16 µM, first compound 0.000316 µM) of 28.9%, a viability, T/C (second compound 3.16 µM, first compound 0.001 µM) of 33.7% and a viability, T/C [17] of 32.1%. It also gave a viability, T/C [18] of 30.8%, a viability, T/C [19] of 28% and a viability, T/C [20] of 21%. For the same molecule, the viability, T/C (second compound 10 µM, first compound 0.000316 µM) was 28.8%, the viability, T/C (second compound 10 µM, first compound 0.001 µM) was 34.2% and the viability, T/C [21] was 31.2%. It also gave a viability, T/C [22] of 28.8%, a viability, T/C [23] of 24.1% and a viability, T/C [24] of 20.8%.
